From patent US5792457A, “Antibody recognizing endothelial cell ligand for leukocyte CR3” (priority 1995, dated 1998)

Experiments:
[1] = system: blood brain barrier permeability (CSF protein); experiment: Rabbit model for meningitis: protein in CSF (blood brain barrier permeability); type: in vivo, New Zealand white rabbits; settings: for Total protein in CSF, 6 hours: 6 hours after inoculation (Example 11, 1 μM peptide; FHA 0.1 μM); for Total protein in CSF, 7 hours: 7 hours after inoculation (Example 11, 1 μM peptide; FHA 0.1 μM); for protein influx into CSF and generation of lactate (in words): 10 μM peptides (Table 10); for Protein in CSF: 6 hours after challenge
Protocol: (§1) The rabbit model was performed according to an established protocol. Specific pathogen free, New Zealand white rabbits (2 kg; Hare Marland, Nutley, N.J.) were anesthetized with valium (2.5 mg/kg, subcutaneously, Hoffman-LaRoche, Nutley, N.J.), ketamine (35 mg/kg, intra-muscularly, Aveco, Fort Dodge, Iowa) and xylazine (5 mg/kg, intramuscularly, Miles Laboratories, Shawnee, Kans.) and a helmet of dental acrylic was affixed to the calvarium. Twenty four hours later, the rabbits were anesthetized with ethyl carbamate (1.75 g/kg; Aldrich Chemical Co., Milwaukee, Wis.) and pentobarbital (15 mg/kg; Abbott Laboratories, Abbott Park, Ill.) and placed in a stereotaxic frame. A spinal needle was introduced into the cisterna magna and 300 μl of CSF was withdrawn. The animals were challenged intracisternally with 10^8 heat killed, unencapsulated pneumococcus strain R6 introduced in 200 μl of saline (time 0). One hour later, animals were treated with peptides dissolved in 1 ml of saline by intravenous injection into the right marginal ear vein. The concentration of FHA was 0.1 μM and that of the FHA Ia, Factor X II, and scrambled FHA II peptides was 10 μM. For the acetyl-FHA II, acetyl/amide-FHA II, dimer of FHA II and trimer of FHA II peptides, the concentration was 10^-3 μM. The concentration of FHA II is given in the results section. Samples of CSF were withdrawn at hourly intervals after pneumococcal inoculation and leukocyte density was measured using a cell counter (Coulter Electronics Inc., Hialeah, Fla.). CSF samples were centrifuged at 10,000×g for 5 minutes and the supernatant was stored at -70° C. until assayed for protein concentration using the bicinchoninic acid method (ECA Kit, Pierce Chemical Co., Rockford, Ill.) and for lactate concentration (Lactate Detection Kit, Sigma, St. Louis, Mo.). Statistically significant differences between treatments were determined by a one way analysis of variance test.
(§2) Loss of barrier function of the cerebral capillary endothelium during inflammation is reflected by an influx of serum proteins into the CSF. […] To examine if the peptides were able to ameliorate these measures of cerebral injury, CSF protein and lactate concentrations were measured hourly in peptide-treated and control animals (Table 10).
(§3) Mean values for CSF lactate and protein at time 0 were 18.6±5.8 and 0.8±0.2 respectively. Ten control animals received phosphate-buffered saline. The concentration of FHA II intravenously injected one hour after challenge with pneumococci was 10 μM. Values represent mean±standarddeviation of concentrations in CSF at 6 hours after pneumococcal challenge (n≥4 for peptide treated animals; n=4 for FHA). *Statistically significant difference as compared to control at p<0.02 (Mann-Whitney test).
(§4) Again, mean values for CSF lactate and protein at time 0 were 18.6±5.8 and 0.8±0.2, respectively. Ten control animals received phosphate-buffered saline. The concentrations of FHA II intravenously injected was 10^-3 μM. Values represent mean±standard deviation of concentrations in CSF at 6 hours after pneumococcal administration (n≥4 per group).
The anti-inflammatory effects of the administered peptides were assessed in the rabbit model for meningitis by the procedures described in Example 10. The animals received 1 ml of 1 uM peptide intravenously. In a slight departure from the protocol described in Example 10, samples of blood were drawn from the left marginal ear vein 30 minutes after the administration of the peptides to determine peripheral leukocyte concentrations.
Values represent mean ±standard deviation of at least four animals per group. ^1 Time after intracisternal inoculation of pneumococci. *Statistically significant difference as compared to control at p<0.02 (Mann-Whitney test).

[2] = system: transendothelial migration of human neutrophils through HUVEC monolayers; experiment: Transendothelial migration (TEM) of neutrophils; type: cell-based; settings: for % Inhibition of TEM: peptides 0.01 mM, native FHA 1 μM, at least 3 experiments with 6 wells/peptide
Text: FIG. 26 is a graphical representation of the inhibition of transendothelial migration of neutrophils by FHA peptide Ca, native FHA and mAb IB4 in a concentration dependent fashion. FHA peptide Ca (.largecircle.); intact FHA (.quadrature.); and mAb IB4 (.tangle-solidup.). Values represent mean±standard deviation of at least 3 experiments with 6 wells/peptide.
Transendothelial migration of neutrophils was studied based on a method described by Muller et al. (1992), J. Exp. Med. 176: 819-828. Briefly, human neutrophils suspended in ice-cold Hanks balanced salt solution (HBSS) containing Ca^++ and Mg^++ (Sigma) were fluoresceinated by adding 3.3 μl/ml 5-(and 6-)carboxyfluorescein diacetate, succinimidyl ester (CFSE, Molecular Probes Inc., Oreg.). After incubation for 30 mins. on ice, neutrophils were washed twice in cold HBSS with Ca^++ and Mg^++ and resuspended in cold Medium 199 (M199, Sigma) to a final concentration of 10^6 /ml. Human umbilical vein endothelial cells were subcultured at confluence into 96-well tissue culture plates (Becton Dickinson Labware, Lincoln Park, N.J.) that were coated with hydrated collagen gel (Vitrogen; Collagen Corporation, Palo Alto, Calif.) and fibronectin. Endothelial cells were stimulated with 10 ng/ml TNF-alpha for 4 hours and washed three times with warm M199. Neutrophils (10^6 /ml) were preincubated with 0.01 mM of peptides or with 1 μM of native FHA in M199 for 5 mins. on ice before they were added in 100 μl aliquots to the endothelial cells. For positive control, neutrophils were pre-incubated with 25 μg/ml anti-CD18 mAb IB4. For negative control, neutrophils were treated with 25 μg/ml mAb W6/32 against HLA class I antigen (Dako, Carpinteria, Calif.). The cells were incubated for 1 hour at 37° C., 5% CO2. To terminate transmigration, the supernatant fluid was aspirated and the wells were filled with warm 1 mM EGTA (Sigma) in HBSS without Ca and Mg. The plates were covered with plate sealers (Dynatech, Alexandria, Va.) and centrifuged in an inverted position at 250 g for 3 mins. at room temperature. To remove residual non-transmigrated neutrophils from the endothelial cells, monolayers were washed twice with 200 μl of warm Hanks solution without Ca and Mg. Fluorescence was quantitated using a fluorescence counter (Millipore Cytofluorm™ 2300). The percentage of transmigrated neutrophils was determined by comparing the amount of fluorescence of test wells with that measured in collagen- and fibronectin-coated wells without endothelial cells. […] Percent inhibition of transendothelial migration of neutrophils was calculated by comparing the number of transmigrated cells in wells containing neutrophils treated with peptide to neutrophils treated with M199 alone and arbitrarily set at 100% transendothelial migration (TEM).
The procedures for determining the neutrophil adherence to cultured endothelial cells and the transendothelial migration of neutrophils were identical with those of Example 9. Control values were the same as those shown in Example 9.

[3] = system: lactate metabolism during meningeal inflammation; experiment: Rabbit model for meningitis: lactate in CSF; type: in vivo, New Zealand white rabbits; settings: 6 hours after challenge
Protocol: as §1, §2, §3, §4

| Substance | Total protein in CSF, 6 hours [1] | Total protein in CSF, 7 hours [1] | % Inhibition of TEM [2] | protein influx into CSF and generation of lactate (in words) [1] | Protein in CSF ([1]; peptides 10 μM, FHA 0.1 μM) | Lactate in CSF ([3]; peptides 10 μM, FHA 0.1 μM) | other results |
| --- | --- | --- | --- | --- | --- | --- | --- |
| AADPHQGVLAQGDIIMDAKG [FHA Cc] | 1.36 ± 0.16 mg/mL | 1.90 ± 0.22 mg/mL | 11 ± 11% | – | – | – | – |
| Ac-ETKEVDG-NH2 [Acetyl/Amide-FHA II] | – | – | – | significantly reduced protein influx into the CSF and generation of lactate | 1.2 ± 0.6 mg/ml CSF | 24.3 ± 3.2 mg/100 ml | – |
| DEETVK [scrambled FHA II, reference compound] | – | – | 4 ± 5% | – | 1.9 ± 0.3 mg/ml CSF | 40.7 ± 5.8 mg/100 ml | – |
| ETKEVDG [FHA II] | – | – | 21 ± 10% | significantly reduced protein influx into the CSF and generation of lactate | 1.4 ± 0.6 mg/ml CSF | 25.5 ± 4.1 mg/100 ml | protein and lactate in CSF (in words) ([1]; 10^-3 μM): ineffective at this dose; Protein in CSF ([1]; 10^-3 μM): 2.45 ± 0.22 mg/ml CSF; Lactate in CSF ([3]; 10^-3 μM): 35.3 ± 6.7 mg/100 ml |
| GTLLLRNDALTENGTVTISA [FHA Cd] | 1.71 ± 0.19 mg/mL | 2.03 ± 0.57 mg/mL | 6 ± 6% | – | – | – | – |
| GYDTKQEDG [Factor X II] | – | – | 14 ± 9% | no significant reduction | 1.6 ± 0.7 mg/ml CSF | 37.6 ± 6.9 mg/100 ml | – |
| LGYQAK (UniProt P12255 1979-1984, looked up, fragment) [FHA Ia] | – | – | 23 ± 5% | no significant reduction | 1.8 ± 0.4 mg/ml CSF | 36.0 ± 6.7 mg/100 ml | – |
| RADPHQGVLAQGDIIMDAKG [FHA Cb] | 1.91 ± 0.24 mg/mL | 2.28 ± 0.28 mg/mL | 8 ± 9% | – | – | – | – |
| RGDPHQGVLAQGDIIMDAKG [FHA Ca] | 1.18 ± 0.39 mg/mL | 1.69 ± 0.41 mg/mL | 83 ± 8% | – | – | – | influx of serum protein into CSF (in words) ([1]; 1 μM, entire observation period): reduced the influx of serum protein significantly during the entire observation period; concentration required for inhibition of TEM similar to native FHA (82±1% at 1 μM) [2]: 10 µM; % Inhibition of TEM ([2]; listed as FHA peptide Ca): 83±8% |
| native FHA: Filamentous hemagglutinin, 220kD surface associated protein of Bordetella pertussis (List Biologicals) | 1.70 ± 0.33 mg/mL | 1.86 ± 0.76 mg/mL | 82±1% | significantly protective for protein influx and lactate generation | 1.3 ± 0.3 mg/ml CSF | 25.0 ± 5.3 mg/100 ml | % Inhibition of TEM ([2]; listed as FHA): 82 ± 1%; % Inhibition of TEM ([2]; listed as Intact FHA): 82±1% |
